Assay results as given in patent US20080064052A1, “Crystal of a Receptor-Ligand Complex and methods of use” (priority 2006, published 2008).
Values joined by “and” are separate entries in the source; they are usually repeats but may differ in a detail not shown here. Identical values can stand only once. Like-named read-outs stand apart in the source and are kept apart here. Ends that are not written are not given here. Peptide text beside a SMILES is read from it. * marks the point of attachment. Biotin = O=C1N[C@H]2[C@H](CS[C@H]2CCCCC(=O)*)N1

T1: mouse EphB4 ectodomain Fc fusion protein (Mus musculus, UniProt P54761)
T1 sequence (P54761 16-539 limits assumed): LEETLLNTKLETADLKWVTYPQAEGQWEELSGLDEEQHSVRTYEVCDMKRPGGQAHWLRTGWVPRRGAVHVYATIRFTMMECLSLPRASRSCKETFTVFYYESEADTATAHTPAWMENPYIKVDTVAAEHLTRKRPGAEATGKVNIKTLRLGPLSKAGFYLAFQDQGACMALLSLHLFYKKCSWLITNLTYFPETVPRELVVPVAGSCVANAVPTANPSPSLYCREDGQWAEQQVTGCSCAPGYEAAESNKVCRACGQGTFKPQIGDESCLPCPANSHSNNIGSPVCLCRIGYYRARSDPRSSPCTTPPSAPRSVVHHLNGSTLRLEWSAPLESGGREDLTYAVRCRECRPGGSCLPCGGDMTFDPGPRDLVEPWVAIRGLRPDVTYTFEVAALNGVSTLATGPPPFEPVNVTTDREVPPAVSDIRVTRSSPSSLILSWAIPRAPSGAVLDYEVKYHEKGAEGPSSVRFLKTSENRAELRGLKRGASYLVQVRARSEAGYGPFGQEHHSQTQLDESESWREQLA

T2: human EphB4 ephrin-binding domain (Homo sapiens, UniProt P54760)
T2 sequence (P54760 17-196): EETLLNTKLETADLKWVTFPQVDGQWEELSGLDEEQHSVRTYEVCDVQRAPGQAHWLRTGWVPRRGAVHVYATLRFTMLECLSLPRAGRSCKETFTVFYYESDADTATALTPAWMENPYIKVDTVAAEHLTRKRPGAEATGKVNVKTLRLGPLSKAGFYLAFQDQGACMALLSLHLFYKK

T3: mouse EphB4 ectodomain Fc fusion protein (mouse EphB4-Fc-His, R&D Systems) (mouse, UniProt P54761 16-539)
T3 construct: extracellular domain; also called murine EphB4; not shown: Fc part of a bought fusion protein; His tag of the bought protein
T3 sequence (looked up): T1 sequence (P54761 16-539 limits assumed)

T4: human EphB4 ephrin-binding domain, EphB4 (17-196) (human, UniProt P54760 17-196)
T4 sequence: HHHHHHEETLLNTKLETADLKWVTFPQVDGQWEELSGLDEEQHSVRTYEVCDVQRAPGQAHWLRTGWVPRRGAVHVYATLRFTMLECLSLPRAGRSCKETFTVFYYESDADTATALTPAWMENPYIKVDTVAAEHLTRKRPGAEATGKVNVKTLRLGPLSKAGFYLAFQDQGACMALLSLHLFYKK

B1: ephrin-B2 Fc (Fc fusion, not shown: a dimerising Fc or GST; large carriers; small tags and cut ends)
chain: RSIVLEPIYWNSSNSKFLPGQGLVLYPQIGDKLDIICPKVDSKTVGQYEYYKVYMVDKDQADRCTIKKENTPLLNCARPDQDVKFTIKFQEFSPNLWGLEFQKNKDYYIISTSNGSLEGLDNQEGGVCQTRAMKILMKVGQDASSAGSARNHGPTRRPELEAGTNGRSSTTSPFVKPNPGSSTDGNSAGHSGNNLLGSEVALFA
B2: Eph-binding domain of human ephrin-B2 (ligand)
chain: IVLEPIYWNSSNSKFLPGQGLVLYPQIGDKLDIICPKVDSKTVGQYEYYKVYMVDKDQADRCTIKKENTPLLNCAKPDQDIKFTIKFQEFSPNLWGLEFQKNKDYYIISTSNGSLEGLDNQEGGVCQTRAMKILMKVG
B3: Human ephrin-B2 monomer (ligand)
chain: B2 chain

Columns and labels:
[1] = biological target: T1, mouse EphB4 ectodomain Fc fusion protein; assay: ELISA competition: inhibition of mouse ephrin-B2 alkaline phosphatase (AP) binding to immobilized mouse EphB4 ectodomain Fc; conditions: murine receptor; for IC50: IC50 for inhibition of mouse ephrin-B2 AP binding to immobilized mouse EphB4 ectodomain Fc, ELISA binding assay
[2] = biological target: T2, human EphB4 ephrin-binding domain; assay: Isothermal titration calorimetry (ITC) binding to EphB4 (17-196); conditions: 25° C., 50 mM Tris pH 7.8, 150 mM NaCl
Experimental: Peptides were dissolved into the same buffer used for the dialysis of EphB4. […] ITC experiments were performed with a Microcal MCS ITC at 25° C. Following an initial injection of 2 μl, titrations were performed by making 20 13 μl injections of peptide into EphB4 in the sample cell to produce an approximate final 2:1 ratio of injectant to sample in the cell. […] Prior to loading the sample cell, EphB4 was centrifuged at 18,000 g for 5 min at 4° C. to remove aggregates and degassed for 5 minutes at room temperature. […] Dilution data were fit to a line and subtracted from the corresponding titration data.

[3] = biological target: T3, mouse EphB4 ectodomain Fc fusion …; assay: competition ELISA: inhibition of mouse ephrin-B2 AP binding to immobilized mouse EphB4 ectodomain Fc
Experimental: The ability of peptides to compete the binding of mouse ephrin-B2 alkaline phosphatase to immobilized mouse EphB4-Fc-His (R&D Systems) was measured by ELISA as previously described (Koolpe et al., 2005).

[4] = biological target: T4, human EphB4 ephrin-binding domain, …; assay: ITC at 25 °C, 290 µM ephrin-B2 injected into 13 µM human EphB4 (17-196)
Experimental: Experiments were performed at 25° C. in 50 mM Tris pH 7.8, 150 mM NaCl, 1 mM CaCl₂.
(§1) Isothermal titration calorimetry and ELISA experiments: EphB4and ephrin-B2 were either dialyzed or buffer exchanged into 50 mM Tris-Cl (pH 7.8 at 25° C.), 150 mM NaCl, 1 mM CaCl₂, prior to use in calorimetry experiments. Peptides were dissolved into the same buffer used for the dialysis of EphB4. The concentration of EphB4, ephrin-B2 and the peptides was determined by measuring the A₂₈₀ and using the theoretical-extinction coefficient (Gill and von Hippel, 1989). ITC experiments were performed with a Microcal MCS ITC at 25° C. Following an initial injection of 2 μl, titrations were performed by making 20 13 μl injections of peptide into EphB4 in the sample cell to produce an approximate final 2:1 ratio of injectant to sample in the cell. For most titrations the sample cell contained 15 μM EphB4 and the injection syringe contained a 200 μM solution of the peptide. Titrations with ephrin-B2 contained 13 μM EphB4 in the sample cell and 290 μM ephrin-B2 in the syringe. Prior to loading the sample cell, EphB4 was centrifuged at 18,000 g for 5 min at 4° C. to remove aggregates and degassed for 5 minutes at room temperature. Corrections for heats of dilution for the peptides and ephrin-B2 were determined by performing titrations of peptide or ephrin-B2 solutions into buffer. Dilution data were fit to a line and subtracted from the corresponding titration data. Titration data were analyzed using Origin ITC software (Version 5.0, Microcal Software Inc.) and curves were fit to a single binding site model (Wiseman et al., 1989). […] A lower limit for the binding constant was determined by performing a titration in which the sample cell contained 30 μM EphB4 and the injection syringe contained a 1.45 mM solution of the peptide, producing a final ratio of peptide to EphB4 of 10:1.

[5] = biological target: T4, human EphB4 ephrin-binding domain, …; assay: ITC at 25 °C, peptide injected into human EphB4 (17-196)
Experimental: as §1, with “10:1. The data was fit assuming a stoichiometry of 1 and at least 60% saturation of binding at the final peptide concentration (Turnbull and Daranas, 2003).” for “10:1.”

Molecule	IC50 [1]	TΔS ([2]; 1 mM CaCl2)	ΔG ([2]; 1 mM CaCl2)	ΔH ([2]; 1 mM CaCl2)	further results
CC[C@H](C)[C@H](NC(=O)[C@@H]1CCCN1C(=O)CNC(=O)[C@H](CC(N)=O)NC(=O)[C@@H]1CCCN1C(=O)[C@H](CO)NC(=O)[C@H](Cc1ccccc1)NC(=O)[C@H](CC(C)C)NC(=O)[C@H](Cc1ccc(O)cc1)NC(=O)[C@@H](N)CC(N)=O)C(=O)N[C@@H](C)C(=O)N[C@@H](CCCNC(=N)N)C(=O)N[C@@H](C)C(=O)N[C@@H](Cc1c[nH]c2ccccc12)C(=O)O [NYLF-RAW] (H-NYLFSPNGPIARAW-OH; N-terminus and C-terminus assumed)	40 nM	-5.7 ± 0.1 kcal/mol	-9.8 ± 0.1 kcal/mol	-15.5 ± 0.1 kcal/mol	–
CC[C@H](C)[C@H](NC(=O)[C@@H]1CCCN1C(=O)CNC(=O)[C@H](CC(N)=O)NC(=O)[C@@H]1CCCN1C(=O)[C@H](CO)NC(=O)[C@H](Cc1ccccc1)NC(=O)[C@@H](N)CC(C)C)C(=O)N[C@@H](C)C(=O)N[C@@H](CCCNC(=N)N)C(=O)N[C@@H](C)C(=O)N[C@@H](Cc1c[nH]c2ccccc12)C(=O)O [LFSP-RAW] (H-LFSPNGPIARAW-OH; N-terminus and C-terminus assumed)	> 10000 nM	2.1 ± 0.4 kcal/mol	-7.4 ± 0.1 kcal/mol	-5.3 ± 0.5 kcal/mol	–
CC[C@H](C)[C@H](NC(=O)[C@@H]1CCCN1C(=O)CNC(=O)[C@H](CC(N)=O)NC(=O)[C@@H]1CCCN1C(=O)[C@H](CO)NC(=O)[C@H](Cc1ccccc1)NC(=O)[C@H](CC(C)C)NC(=O)[C@H](Cc1ccc(O)cc1)NC(=O)[C@H](CC(N)=O)NC(=O)[C@@H](N)[C@@H](C)O)C(=O)N[C@@H](C)C(=O)O [TNYL]	~150000 nM and 150000 nM	–	–	-9.6 ± 0.3 kcal/mol	fold less potent than TNYL-RAW (IC50) ([1]; ratio of IC50 values): 10,000 fold; Kd ([2]; 1 mM CaCl2, read-out: Kd): ≥ 140000 nM
CC[C@H](C)[C@H](NC(=O)[C@@H]1CCCN1C(=O)CNC(=O)[C@H](CC(N)=O)NC(=O)[C@@H]1CCCN1C(=O)[C@H](CO)NC(=O)[C@H](Cc1ccccc1)NC(=O)[C@H](CC(C)C)NC(=O)[C@@H](N)Cc1ccc(O)cc1)C(=O)N[C@@H](C)C(=O)N[C@@H](CCCNC(=N)N)C(=O)N[C@@H](C)C(=O)N[C@@H](Cc1c[nH]c2ccccc12)C(=O)O [YLFS-RAW] (H-YLFSPNGPIARAW-OH; N-terminus and C-terminus assumed)	40 nM	-4.1 ± 0.4 kcal/mol	-9.7 ± 0.2 kcal/mol	-13.8 ± 0.5 kcal/mol	–
CC[C@H](C)[C@H](NC(=O)[C@@H]1CCCN1C(=O)CNC(=O)[C@H](CC(N)=O)NC(=O)[C@@H]1CCCN1C(=O)[C@H](CO)NC(=O)[C@H](Cc1ccccc1)NC(=O)[C@H](CC(C)C)NC(=O)[C@H](Cc1ccc(O)cc1)NC(=O)[C@H](CC(N)=O)NC(=O)[C@@H](N)[C@@H](C)O)C(=O)N[C@@H](C)C(=O)N[C@@H](CCCNC(=N)N)C(=O)N[C@@H](C)C(=O)N[C@@H](Cc1c[nH]c2ccccc12)C(=O)O [TNYL-RAW] (H-TNYLFSPNGPIARAW-OH; N-terminus assumed)	~15 nM and 15 nM	-4.9 ± 0.2 kcal/mol	-9.8 ± 0.1 kcal/mol	-14.7 kcal/mol and -14.7 ± 0.2 kcal/mol	Kd ([2]; Kd, 1 mM CaCl2): 70 nM
B1	–	–	–	–	IC50 [3]: 9 nM
B2	–	–	–	–	Kd [4]: 40 nM; TΔS [4]: 13.4 kcal/mol; ΔG [4]: -10.2 kcal/mol; ΔH [4]: 3.3 kcal/mol
B3	–	–	–	–	IC50 [3]: 10 nM
YLFSPNGPIARAW [YLFS-RAW peptide (YLFSPNGPIARAW)]	–	–	–	–	Kd [5]: 80 nM; TΔS [5]: -4.1 kcal/mol; ΔG [5]: -9.7 kcal/mol; ΔH [5]: -13.8 kcal/mol
NYLFSPNGPIARAW [NYLF-RAW peptide (NYLFSPNGPIARAW)]	–	–	–	–	Kd [5]: 65 nM; TΔS [5]: -5.7 kcal/mol; ΔG [5]: -9.8 kcal/mol; ΔH [5]: -15.5 kcal/mol
TNYLFSPNGPIAGSGSK(Biotin) [TNYL-biotin peptide (TNYLFSPNGPIAGSGSK-biotin)]	–	–	–	–	IC50 [3]: 50000 nM
